Experimental data from patent US20030118627A1 (DABUR RESEARCH FOUNDATION, priority 2001, published 2003).

Legend:
MOLT 4 = experiment: MTT cytotoxicity assay, MOLT 4 leukemia; assay type: cell-based; conditions: Homo sapiens; for cytotoxicity at 1000 µM / cytotoxicity at 2500 µM / cytotoxicity at 4000 µM / cytotoxicity at 5000 µM / cytotoxicity at 10000 µM: MOLT 4 Leukemia, read-out: Percent cytotoxicity; for cytotoxicity at 1000 µM: 1.0 mM; for cytotoxicity at 2500 µM: 2.5 mM; for cytotoxicity at 4000 µM: 4 mM; for cytotoxicity at 5000 µM: 5 mM; for cytotoxicity at 10000 µM: 10 mM
Method: (§1) Briefly, a […] MTT cytotoxicity assay was performed, which is based on the principle of uptake of MTT (3-(4,5-dimethylthiazol-2-yl)-2,5-diphenyl tetrazolium bromide), a tetrazolium salt, by the metabolically active cells where it is metabolized by active mitochondria into a blue colored formazan product that is read spectrophoto-metrically. MTT was dissolved in phosphate buffered saline with a pH of 7.4 to obtain an MTT concentration of 5 mg/ml; the resulting mixture was filtered through a 0.22 micron filter to sterilize and remove a small amount of insoluble residue. For each type of tumor cell, 20,000 to 50,000 cells were seeded in a 96-well culture plate and incubated with the combination in a CO2 incubator for 24 hours. […] The assay was terminated after 24 hours by adding 100 ug (20 ul) of MTT to each well, then incubating for additional one hour, and finally adding 50 ul of 10% SDS-0.01N HCl to each well to lyse the cells and dissolve formazan. After incubating for one hour, the plate was read spectrophotometrically at 540 nm and the percentage cytotoxicity calculated.

PA 1 = experiment: MTT cytotoxicity assay, PA 1 ovary; assay type: cell-based; conditions: Homo sapiens; for cytotoxicity at 1000 µM / cytotoxicity at 2500 µM / cytotoxicity at 4000 µM / cytotoxicity at 5000 µM / cytotoxicity at 10000 µM: PA 1 Ovary, read-out: Percent cytotoxicity; for cytotoxicity at 1000 µM: 1.0 mM; for cytotoxicity at 2500 µM: 2.5 mM; for cytotoxicity at 4000 µM: 4 mM; for cytotoxicity at 5000 µM: 5 mM; for cytotoxicity at 10000 µM: 10 mM
Method: as §1

PTC = experiment: MTT cytotoxicity assay, PTC colon; assay type: cell-based; conditions: Homo sapiens; for cytotoxicity at 1000 µM: 1.0 mM; for cytotoxicity at 1000 µM / cytotoxicity at 2500 µM / cytotoxicity at 4000 µM / cytotoxicity at 5000 µM / cytotoxicity at 10000 µM: read-out: Percent cytotoxicity; for cytotoxicity at 2500 µM: 2.5 mM; for cytotoxicity at 4000 µM: 4 mM; for cytotoxicity at 5000 µM: 5 mM; for cytotoxicity at 10000 µM: 10 mM
Method: as §1

Miapaca2 = experiment: MTT cytotoxicity assay, Miapaca2 pancreas; assay type: cell-based; conditions: Homo sapiens; for cytotoxicity at 1000 µM: MIA PaCa-2, 1.0 mM; for cytotoxicity at 1000 µM / cytotoxicity at 2500 µM / cytotoxicity at 4000 µM / cytotoxicity at 5000 µM / cytotoxicity at 10000 µM: read-out: Percent cytotoxicity; for cytotoxicity at 2500 µM: MIA PaCa-2, 2.5 mM; for cytotoxicity at 4000 µM: MIA PaCa-2, 4 mM; for cytotoxicity at 5000 µM: MIA PaCa-2, 5 mM; for cytotoxicity at 10000 µM: MIA PaCa-2, 10 mM
Method: as §1

DU145 = experiment: MTT cytotoxicity assay, DU145 prostate; assay type: cell-based; conditions: Homo sapiens; for cytotoxicity at 1000 µM: DU-145, 1.0 mM; for cytotoxicity at 1000 µM / cytotoxicity at 2500 µM / cytotoxicity at 4000 µM / cytotoxicity at 5000 µM / cytotoxicity at 10000 µM: read-out: Percent cytotoxicity; for cytotoxicity at 2500 µM: DU-145, 2.5 mM; for cytotoxicity at 4000 µM: DU-145, 4 mM; for cytotoxicity at 5000 µM: DU-145, 5 mM; for cytotoxicity at 10000 µM: DU-145, 10 mM
Method: as §1

L132 = experiment: MTT cytotoxicity assay, L132 lung; assay type: cell-based; conditions: Homo sapiens; for cytotoxicity at 1000 µM: 1.0 mM; for cytotoxicity at 1000 µM / cytotoxicity at 2500 µM / cytotoxicity at 4000 µM / cytotoxicity at 5000 µM / cytotoxicity at 10000 µM: read-out: Percent cytotoxicity; for cytotoxicity at 2500 µM: 2.5 mM; for cytotoxicity at 4000 µM: 4 mM; for cytotoxicity at 5000 µM: 5 mM; for cytotoxicity at 10000 µM: 10 mM
Method: as §1

MCF7 = experiment: MTT cytotoxicity assay, MCF7 breast; assay type: cell-based; conditions: Homo sapiens; for cytotoxicity at 1000 µM / cytotoxicity at 2500 µM / cytotoxicity at 4000 µM / cytotoxicity at 5000 µM / cytotoxicity at 10000 µM: MCF7 breast, read-out: Percent cytotoxicity; for cytotoxicity at 1000 µM: 1.0 mM; for cytotoxicity at 2500 µM: 2.5 mM; for cytotoxicity at 4000 µM: 4 mM; for cytotoxicity at 5000 µM: 5 mM; for cytotoxicity at 10000 µM: 10 mM
Method: as §1

U87MG = experiment: MTT cytotoxicity assay, U87MG glioblastoma; assay type: cell-based; conditions: Homo sapiens, U-87 MG, 24 h, read-out: ED50 values of cytotoxicity
Method: as §1

KB = experiment: MTT cytotoxicity assay, KB oral; assay type: cell-based; conditions: Homo sapiens, 24 h, read-out: ED50 values of cytotoxicity
Method: as §1

Hep2 = experiment: MTT cytotoxicity assay, Hep2 larynx; assay type: cell-based; conditions: Homo sapiens, HEp-2, 24 h, read-out: ED50 values of cytotoxicity
Method: as §1

293 = experiment: MTT cytotoxicity assay, 293 kidney; assay type: cell-based; conditions: Homo sapiens, HEK293, 24 h, read-out: ED50 values of cytotoxicity
Method: as §1

INT 407 = experiment: MTT cytotoxicity assay, INT 407 intestine; assay type: cell-based; conditions: Homo sapiens, 24 h, read-out: ED50 values of cytotoxicity
Method: as §1

Swiss albino mice = conditions: both, mouse, in vivo, po, 15 days
Method: Acute toxicity studies were performed using the oral route of administration.
A batch of 5 female and 5 male mice each was administered the test substance by oral route. […] Another batch of 5 female and 5 male served as control.
Observations were made three times on the day of dosing and twice daily thereafter for the remainder of 14 days or until reversible toxic signs or symptoms subsided. All gross visible toxic signs and symptoms were recorded. Body weights were recorded prior to dosing and weekly thereafter.

[1] = 24 h, read-out: ED50 values of cytotoxicity

For `CCCCOC(=O)C1CCC(=O)N1C(OC(C)=O)C(C)=O` (centres unmarked) [MGC-5, N-(1-acetoxy-2-ketopropyl)-butylpyroglutamate], the IC50 (MOLT 4; 24 h, Molt 4 Leukemia, read-out: ED50 values of cytotoxicity) was 1.5 ± 0.1 mM, the cytotoxicity at 1000 µM (MOLT 4) was 25.9 ± 2.9% and the cytotoxicity at 2500 µM (MOLT 4) was 61 ± 4.8%. For the same compound, the cytotoxicity at 4000 µM (MOLT 4) was 76 ± 7.1%, the cytotoxicity at 5000 µM (MOLT 4) was 82.9 ± 6.9% and the cytotoxicity at 10000 µM (MOLT 4) was 87.9 ± 6.9%. The IC50 (PA 1; 24 h, PA 1 Ovarian, read-out: ED50 values of cytotoxicity) was 1.6 ± 0.1 mM, the cytotoxicity at 1000 µM (PA 1) was 31.8 ± 3.1% and the cytotoxicity at 2500 µM (PA 1) was 58.8 ± 5.3%. For the same compound, the cytotoxicity at 4000 µM (PA 1) was 83.9 ± 7.8%, the cytotoxicity at 5000 µM (PA 1) was 85.9 ± 6.2% and the cytotoxicity at 10000 µM (PA 1) was 86.9 ± 8.4%. It also gave a cytotoxicity at 1000 µM (PTC) of 2.9 ± 0.3%, a cytotoxicity at 2500 µM (PTC) of 37.9 ± 3.9% and a cytotoxicity at 4000 µM (PTC) of 53.9 ± 5.4%. It also gave a cytotoxicity at 5000 µM (PTC) of 85.9 ± 8.9%, a cytotoxicity at 10000 µM (PTC) of 89.2 ± 7.4% and an IC50 (PTC; [1]) of 3.8 ± 0.9 mM. For the same compound, the cytotoxicity at 1000 µM (Miapaca2) was 0%, the cytotoxicity at 2500 µM (Miapaca2) was 24.8 ± 2.6% and the cytotoxicity at 4000 µM (Miapaca2) was 43.8 ± 3.9%. For the same compound, the cytotoxicity at 5000 µM (Miapaca2) was 54.9 ± 4.2%, the cytotoxicity at 10000 µM (Miapaca2) was 67.9 ± 4% and the IC50 (Miapaca2; MIA PaCa-2, 24 h, read-out: ED50 values of cytotoxicity) was 4.3 ± 1.6 mM. It also gave a cytotoxicity at 1000 µM (DU145) of 27.9 ± 0.4%, a cytotoxicity at 2500 µM (DU145) of 58.4 ± 5.9% and a cytotoxicity at 4000 µM (DU145) of 59 ± 4.3%. It also gave a cytotoxicity at 5000 µM (DU145) of 68.3 ± 4.6%, a cytotoxicity at 10000 µM (DU145) of 80 ± 7% and an IC50 (DU145; DU-145, 24 h, read-out: ED50 values of cytotoxicity) of 1.9 ± 0.7 mM. It also gave a cytotoxicity at 1000 µM (L132) of 2.9 ± 0.1%, a cytotoxicity at 2500 µM (L132) of 36.9 ± 4.9% and a cytotoxicity at 4000 µM (L132) of 57.8 ± 4%. For the same compound, the cytotoxicity at 5000 µM (L132) was 59 ± 6%, the cytotoxicity at 10000 µM (L132) was 76.3 ± 5.4% and the IC50 (L132; [1]) was 3.6 ± 1.1 mM. The IC50 (MCF7; MCF7, 24 h, MCF 7 Breast, read-out: ED50 values of cytotoxicity) was 5 ± 2.1 mM, the cytotoxicity at 1000 µM (MCF7) was 0% and the cytotoxicity at 2500 µM (MCF7) was 0%. The cytotoxicity at 4000 µM (MCF7) was 34.9 ± 3.9%, the cytotoxicity at 5000 µM (MCF7) was 51.9 ± 3.8% and the cytotoxicity at 10000 µM (MCF7) was 58.7 ± 5%. For the same compound, the IC50 (U87MG) was 3.4 ± 1.1 mM, the IC50 (KB) was 2 ± 0.7 mM and the IC50 (Hep2) was 1.9 mM. For the same compound, the IC50 293 was 1.9 ± 0.7 mM and the IC50 (INT 407) was 2.6 ± 1.1 mM.
`CC(=O)OC(C(C)=O)N1C(=O)CCC1C(=O)OCc1ccccc1` (centres unmarked) [MGC-6, N-(1-acetoxy-2-ketopropyl)-benzylpyroglutamate] showed a cytotoxicity at 1000 µM (MOLT 4) of 41.9 ± 4.2%, a cytotoxicity at 2500 µM (MOLT 4) of 61.9 ± 5.3% and a cytotoxicity at 4000 µM (MOLT 4) of 84.9 ± 7.4%. For the same compound, the cytotoxicity at 5000 µM (MOLT 4) was 84.8 ± 3.9%, the cytotoxicity at 10000 µM (MOLT 4) was 87.1 ± 6.8% and the cytotoxicity at 1000 µM (PA 1) was 42.9 ± 4.9%. The cytotoxicity at 2500 µM (PA 1) was 63.9 ± 4.9%, the cytotoxicity at 4000 µM (PA 1) was 86.9 ± 6.9% and the cytotoxicity at 5000 µM (PA 1) was 88.7 ± 5.9%. The cytotoxicity at 10000 µM (PA 1) was 84 ± 7.5%, the cytotoxicity at 1000 µM (PTC) was 38.9 ± 3.9% and the cytotoxicity at 2500 µM (PTC) was 59.7 ± 5.3%. The cytotoxicity at 4000 µM (PTC) was 75.9 ± 4%, the cytotoxicity at 5000 µM (PTC) was 80.6 ± 7.4% and the cytotoxicity at 10000 µM (PTC) was 86.4 ± 4%. It also gave a cytotoxicity at 1000 µM (Miapaca2) of 0%, a cytotoxicity at 2500 µM (Miapaca2) of 23.7 ± 2% and a cytotoxicity at 4000 µM (Miapaca2) of 51.9 ± 5.2%. The cytotoxicity at 5000 µM (Miapaca2) was 58.5 ± 5%, the cytotoxicity at 10000 µM (Miapaca2) was 67.4 ± 3% and the cytotoxicity at 1000 µM (DU145) was 37.8 ± 2.6%. For the same compound, the cytotoxicity at 2500 µM (DU145) was 56.9 ± 4.2%, the cytotoxicity at 4000 µM (DU145) was 78.9 ± 7.4% and the cytotoxicity at 5000 µM (DU145) was 81.5 ± 7.3%. The cytotoxicity at 10000 µM (DU145) was 85.9 ± 6.9%, the cytotoxicity at 1000 µM (L132) was 2.7 ± 0.2% and the cytotoxicity at 2500 µM (L132) was 34.8 ± 5.8%. It also gave a cytotoxicity at 4000 µM (L132) of 53.9 ± 5%, a cytotoxicity at 5000 µM (L132) of 67.9 ± 5% and a cytotoxicity at 10000 µM (L132) of 74.7 ± 7.3%. The cytotoxicity at 1000 µM (MCF7) was 0%, the cytotoxicity at 2500 µM (MCF7) was 0% and the cytotoxicity at 4000 µM (MCF7) was 0%. For the same compound, the cytotoxicity at 5000 µM (MCF7) was 13.9 ± 1.1%, the cytotoxicity at 10000 µM (MCF7) was 23.9 ± 2.9% and the safe dose (Swiss albino mice) was 75 mg.
